From ChEMBL document CHEMBL1130903, “Preparation of difluoro analogs of CCGs and their pharmacological evaluations” (Bioorg Med Chem Lett, 1998)

Key:
[1] = biological target: Metabotropic glutamate receptor 1 (Rattus norvegicus) (UniProt P23385); assay: (§1) Relative activity in depolarization to its corresponding CCG(CCG=1) isomer
[2] = biological target: Metabotropic glutamate receptor 1 (Rattus norvegicus) (UniProt P23385); assay: Depolarizing activity against mGluR-I receptor in isolated spinal cord of newborn rat.; format: tissue-based
[3] = biological target: T1, Glutamate NMDA receptor (Rattus norvegicus) (UniProt P35439+Q00959+Q00960+Q00961+Q62645+Q8VHN2+Q9R1M7); assay: Depolarizing activity against NMDA receptor in isolated spinal cord of newborn rat.; format: protein-complex assay
[4] = biological target: T1, Glutamate NMDA receptor (Rattus norvegicus); assay: as §1; format: protein-complex assay

Metabotropic glutamate receptor 1 (Rattus norvegicus), sequence (P23385 19-1199 limits assumed): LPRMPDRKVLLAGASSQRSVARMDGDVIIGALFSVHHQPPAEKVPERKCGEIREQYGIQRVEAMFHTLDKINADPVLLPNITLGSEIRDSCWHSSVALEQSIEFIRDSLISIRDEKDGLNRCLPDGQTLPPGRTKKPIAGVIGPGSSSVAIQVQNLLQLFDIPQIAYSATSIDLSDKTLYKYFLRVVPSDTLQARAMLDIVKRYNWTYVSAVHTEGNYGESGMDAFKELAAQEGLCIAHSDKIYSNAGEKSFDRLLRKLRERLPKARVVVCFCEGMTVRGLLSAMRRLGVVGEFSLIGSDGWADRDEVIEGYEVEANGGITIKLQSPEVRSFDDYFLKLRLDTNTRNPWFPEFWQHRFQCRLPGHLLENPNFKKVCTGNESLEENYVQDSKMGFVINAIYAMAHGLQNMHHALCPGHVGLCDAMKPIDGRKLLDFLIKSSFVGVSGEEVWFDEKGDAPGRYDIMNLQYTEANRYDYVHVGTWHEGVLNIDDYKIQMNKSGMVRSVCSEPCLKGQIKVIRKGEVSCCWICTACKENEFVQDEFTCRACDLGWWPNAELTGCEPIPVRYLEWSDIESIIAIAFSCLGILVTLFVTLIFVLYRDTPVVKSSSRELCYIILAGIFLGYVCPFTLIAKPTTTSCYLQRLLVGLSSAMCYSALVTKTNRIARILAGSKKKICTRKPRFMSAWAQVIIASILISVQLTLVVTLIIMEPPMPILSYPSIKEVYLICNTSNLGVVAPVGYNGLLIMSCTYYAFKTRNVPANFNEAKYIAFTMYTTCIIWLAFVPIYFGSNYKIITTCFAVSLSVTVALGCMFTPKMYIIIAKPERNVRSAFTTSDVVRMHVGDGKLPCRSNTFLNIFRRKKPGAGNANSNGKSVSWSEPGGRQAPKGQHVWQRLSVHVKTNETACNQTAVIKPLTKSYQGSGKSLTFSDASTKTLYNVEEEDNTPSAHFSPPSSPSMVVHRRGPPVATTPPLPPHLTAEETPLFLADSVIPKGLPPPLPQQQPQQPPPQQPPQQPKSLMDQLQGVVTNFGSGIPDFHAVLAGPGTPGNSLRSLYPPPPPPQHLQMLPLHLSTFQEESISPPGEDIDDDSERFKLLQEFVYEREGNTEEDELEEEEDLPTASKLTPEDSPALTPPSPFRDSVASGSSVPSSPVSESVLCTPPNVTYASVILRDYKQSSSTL

Compound | Ratio of depolarizing activity [1] | Threshold concentration [2] [µM] | Threshold concentration [3] [µM] | Ratio of depolarizing activity [4]
N[C@H](C(=O)O)[C@H]1[C@H](C(=O)O)C1(F)F | 0.5 | 300 | 300 | –
N[C@H](C(=O)O)[C@H]1[C@@H](C(=O)O)C1(F)F | – | – | 1 | 1.5
NC(C(=O)O)[C@@H]1[C@H](C(=O)O)C1(F)F (single isomer, unassigned) | – | – | 1000 | < 0.1
N[C@H](C(=O)O)[C@@H]1[C@@H](C(=O)O)C1(F)F | 3 | 2 | – | –
NC(C(=O)O)[C@H]1[C@@H](C(=O)O)C1(F)F (single isomer, unassigned) | – | – | 1000 | < 0.01

The next lines start with the values.

Ratio of depolarizing activity [1] | Threshold concentration [2] [µM] | Threshold concentration [3] [µM] | Ratio of depolarizing activity [4] | Compound
– | – | 100 | 2 | N[C@H](C(=O)O)[C@@H]1[C@H](C(=O)O)C1(F)F
– | – | 30 | 1.2 | N[C@@H](C(=O)O)[C@H]1[C@H](C(=O)O)C1(F)F
– | – | 10 | 0.1 | N[C@@H](C(=O)O)[C@@H]1[C@@H](C(=O)O)C1(F)F
